Data taken from ChEMBL document CHEMBL4665653, “VU6005806/AZN-00016130, an advanced M positive allosteric modulator (PAM) profiled as a potential preclinical development candidate” (Bioorg Med Chem Lett, 2019).
Active and inactive are the calls of the source. No cut-off for these calls is given here.

Assays:
[1] = biological target: T1, Muscarinic acetylcholine receptor M4 (Homo sapiens, UniProt P08173); experiment: Positive allosteric modulation of human M4 receptor/Gqi5 in presence of EC20 acetylcholine by calcium mobilization assay; assay type: functional
T1 sequence (P08173 whole entry): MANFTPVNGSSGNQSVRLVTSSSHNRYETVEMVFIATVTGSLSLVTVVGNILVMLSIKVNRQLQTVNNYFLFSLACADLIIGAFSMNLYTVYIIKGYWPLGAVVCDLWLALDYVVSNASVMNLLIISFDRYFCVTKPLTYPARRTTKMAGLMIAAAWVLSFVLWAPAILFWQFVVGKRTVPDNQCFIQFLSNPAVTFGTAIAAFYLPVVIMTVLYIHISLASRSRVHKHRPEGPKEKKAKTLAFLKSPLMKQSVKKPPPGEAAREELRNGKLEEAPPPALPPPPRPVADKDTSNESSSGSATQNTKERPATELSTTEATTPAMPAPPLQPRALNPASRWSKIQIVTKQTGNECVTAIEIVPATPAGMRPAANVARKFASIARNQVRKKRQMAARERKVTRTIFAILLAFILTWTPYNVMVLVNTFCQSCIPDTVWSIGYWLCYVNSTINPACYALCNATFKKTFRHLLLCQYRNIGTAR

[2] = biological target: T2, Muscarinic acetylcholine receptor M4 (Homo sapiens) (UniProt P08173); experiment: Positive allosteric modulation of human M4 receptor/Gqi5 in presence of EC20 acetylcholine by calcium mobilization assay relative to acetylcholine; assay type: functional; details: filed as positive allosteric modulator
T2 sequence (whole entry): T1 sequence (P08173 whole entry)

[3] = biological target: T3, Muscarinic acetylcholine receptor M2 (Homo sapiens, UniProt P08172); experiment: Positive allosteric modulation of human M2 receptor/Gqi5 in presence of EC20 acetylcholine by calcium mobilization assay
T3 sequence (P08172 whole entry): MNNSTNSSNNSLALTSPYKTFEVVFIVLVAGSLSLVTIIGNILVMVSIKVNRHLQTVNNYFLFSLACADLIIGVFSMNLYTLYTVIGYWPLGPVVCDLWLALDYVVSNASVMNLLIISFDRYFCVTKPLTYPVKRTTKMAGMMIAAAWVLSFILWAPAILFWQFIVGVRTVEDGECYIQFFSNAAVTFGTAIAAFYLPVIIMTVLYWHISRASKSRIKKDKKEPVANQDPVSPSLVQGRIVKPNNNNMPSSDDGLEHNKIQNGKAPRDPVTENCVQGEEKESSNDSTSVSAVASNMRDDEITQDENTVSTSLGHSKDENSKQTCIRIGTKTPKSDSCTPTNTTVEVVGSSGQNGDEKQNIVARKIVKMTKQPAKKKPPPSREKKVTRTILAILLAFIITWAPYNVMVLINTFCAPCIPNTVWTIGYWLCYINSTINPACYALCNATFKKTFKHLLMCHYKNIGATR

[4] = biological target: T4, Muscarinic acetylcholine receptor M1 (Homo sapiens) (UniProt P11229); experiment: Positive allosteric modulation of human M1 receptor
T4 sequence (whole entry): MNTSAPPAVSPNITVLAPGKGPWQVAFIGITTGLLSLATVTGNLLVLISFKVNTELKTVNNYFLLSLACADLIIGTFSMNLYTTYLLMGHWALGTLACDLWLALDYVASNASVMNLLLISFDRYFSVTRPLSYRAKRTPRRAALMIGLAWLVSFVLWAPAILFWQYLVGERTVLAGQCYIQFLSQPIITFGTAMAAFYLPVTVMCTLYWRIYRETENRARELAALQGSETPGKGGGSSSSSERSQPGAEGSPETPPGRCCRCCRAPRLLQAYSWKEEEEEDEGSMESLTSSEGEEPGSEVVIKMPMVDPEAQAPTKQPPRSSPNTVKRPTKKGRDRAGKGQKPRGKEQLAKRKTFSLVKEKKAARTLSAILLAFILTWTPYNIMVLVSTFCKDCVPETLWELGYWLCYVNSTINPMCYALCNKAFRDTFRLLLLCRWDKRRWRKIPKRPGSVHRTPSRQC

[5] = biological target: Muscarinic acetylcholine receptor M3 (Homo sapiens, UniProt P20309); experiment: Positive allosteric modulation of human M3 receptor
Sequence of Muscarinic acetylcholine receptor M3 (P20309 whole entry, looked up): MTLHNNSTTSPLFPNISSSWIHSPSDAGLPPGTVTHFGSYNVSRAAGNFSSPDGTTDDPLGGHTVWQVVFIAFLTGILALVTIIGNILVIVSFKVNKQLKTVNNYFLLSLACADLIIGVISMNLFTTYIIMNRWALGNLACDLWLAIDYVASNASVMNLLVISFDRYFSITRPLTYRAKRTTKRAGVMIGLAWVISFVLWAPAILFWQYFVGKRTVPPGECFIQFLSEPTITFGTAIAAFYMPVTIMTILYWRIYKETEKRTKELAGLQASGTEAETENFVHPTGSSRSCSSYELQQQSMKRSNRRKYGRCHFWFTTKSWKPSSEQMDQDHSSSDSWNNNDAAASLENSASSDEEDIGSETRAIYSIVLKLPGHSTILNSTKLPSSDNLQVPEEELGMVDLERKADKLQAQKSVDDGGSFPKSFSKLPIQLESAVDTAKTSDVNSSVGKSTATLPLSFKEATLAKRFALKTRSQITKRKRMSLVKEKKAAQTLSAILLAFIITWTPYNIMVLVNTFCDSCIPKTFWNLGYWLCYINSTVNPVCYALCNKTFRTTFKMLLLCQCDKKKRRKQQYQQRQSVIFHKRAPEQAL

[6] = biological target: T5, Muscarinic acetylcholine receptor M5 (Homo sapiens) (UniProt P08912); experiment: Positive allosteric modulation of human M5 receptor
T5 sequence (whole entry): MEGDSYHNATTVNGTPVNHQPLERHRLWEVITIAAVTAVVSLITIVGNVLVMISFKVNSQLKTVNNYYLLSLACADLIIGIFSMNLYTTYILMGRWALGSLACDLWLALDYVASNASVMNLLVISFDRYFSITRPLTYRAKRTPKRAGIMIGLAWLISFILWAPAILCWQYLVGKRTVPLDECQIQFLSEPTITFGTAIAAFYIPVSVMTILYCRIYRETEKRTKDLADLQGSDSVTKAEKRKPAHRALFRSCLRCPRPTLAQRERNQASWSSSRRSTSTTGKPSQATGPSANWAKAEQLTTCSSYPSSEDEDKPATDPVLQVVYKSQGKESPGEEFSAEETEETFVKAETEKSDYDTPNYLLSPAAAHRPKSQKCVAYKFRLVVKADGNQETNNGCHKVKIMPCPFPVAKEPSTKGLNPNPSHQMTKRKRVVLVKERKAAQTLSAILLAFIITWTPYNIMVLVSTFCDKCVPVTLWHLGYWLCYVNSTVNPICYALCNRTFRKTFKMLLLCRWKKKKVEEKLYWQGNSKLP

[7] = Hepatic clearance in rat; assay type: ADME; details: in vivo
[8] = Hepatic clearance in human; assay type: ADME
[9] = Fraction unbound in rat plasma; assay type: ADME, cell-free
[10] = Fraction unbound in human plasma; assay type: ADME, cell-free
[11] = Fraction unbound in rat brain; assay type: ADME, tissue-based
[12] = Brain to plasma permeability coefficient, Kp in Sprague-Dawley rat at 0.1 to 0.2 mg/kg, iv measured after 0.25 hrs; assay type: ADME, organism-based; details: dose 0.1-0.2 mg/kg
[13] = Unbound brain-to-plasma concentration ratio in Sprague-Dawley rat at 0.1 to 0.2 mg/kg, iv measured after 0.25 hrs; assay type: ADME, organism-based; details: dose 0.1-0.2 mg/kg, read-out: K(p,uu,brain)
[14] = biological target: T3, Muscarinic acetylcholine receptor M2; experiment: Positive allosteric modulation of human M2 receptor/Gqi5 in presence of EC20 acetylcholine by calcium mobilization assay relative to acetylcholine; details: read-out: %max

| SMILES | EC50 [1] [nM] | %max [2] [%] | EC50 [3] [nM] | Activity [4] | Activity [5] | Activity [6] | CLH [7] [mL/min/kg] | CLH [8] [mL/min/kg] | fraction unbound [9] | fraction unbound [10] | fraction unbound [11] | Kp at 0.25 h [12] | Kp uu at 0.25 h [13] | Emax [14] [%] |
| --- | --- | --- | --- | --- | --- | --- | --- | --- | --- | --- | --- | --- | --- | --- |
| CCc1nnc2sc(C(=O)NC3CN(c4ncc(C(F)(F)F)cn4)C3)c(N)c2c1C | 510 | 77 | > 30000 | inactive | inactive | inactive |  |  |  |  |  |  |  |  |
| COc1cc(N2CC(NC(=O)c3sc4nnc(Cl)c(C)c4c3N)C2)c(Cl)cn1 | 10 | 52 | > 30000 | inactive | inactive | inactive | 15.3 | 11.7 | 0.005 | < 0.001 | 0.01 | 0.21 | 0.42 |  |
| COc1nnc2sc(C(=O)NC3Cc4ccccc4C3)c(N)c2c1C | 20 | 83 |  |  |  |  |  |  |  |  |  |  |  |  |
| Cc1c(O)nnc2sc(C(=O)NC3CN(c4ncc(C(F)(F)F)cn4)C3)c(N)c12 | 6720 | 45 | > 30000 | inactive | inactive | inactive |  |  |  |  |  |  |  |  |
| Cc1c(Cl)nnc2sc(C(=O)NC3CN(c4ncc(C(F)(F)F)cn4)C3)c(N)c12 | 60 | 78 | > 30000 | inactive | inactive | inactive | 51.9 |  | 0.022 | 0.022 | 0.037 | 0.1 | 0.17 |  |
| Cc1c(CN(C)C)nnc2sc(C(=O)NC3CN(c4ncc(C(F)(F)F)cn4)C3)c(N)c12 | > 30000 |  | > 30000 | inactive | inactive | inactive |  |  |  |  |  |  |  |  |
| Cc1c(Cl)nnc2sc(C(=O)NC3CN(c4cc(Cl)ncc4Cl)C3)c(N)c12 | 30 | 59 | > 30000 | inactive | inactive | inactive |  |  |  |  |  |  |  |  |
| Cc1c(Cl)nnc2sc(C(=O)NC3CN(c4ccnc(F)c4Cl)C3)c(N)c12 | 70 | 72 | > 30000 | inactive | inactive | inactive |  |  |  |  |  |  |  |  |
| COCCOc1nnc2sc(C(=O)NC3CN(c4ncc(C(F)(F)F)cn4)C3)c(N)c2c1C | 180 | 48 | > 30000 | inactive | inactive | inactive |  |  |  |  |  |  |  |  |
| Cc1c(CO)nnc2sc(C(=O)NC3CN(c4ncc(C(F)(F)F)cn4)C3)c(N)c12 | 1170 | 75 | > 30000 | inactive | inactive | inactive |  |  |  |  |  |  |  |  |
| Cc1c(Cl)nnc2sc(C(=O)NC3CN(c4ccc(C5CC5)nn4)C3)c(N)c12 | 120 | 94 | > 5000 | inactive | inactive | inactive |  |  |  |  |  |  |  | 43 |
| Cc1cc(C2CC2)ncc1N1CC(NC(=O)c2sc3nnc(Cl)c(C)c3c2N)C1 | 150 | 90 | 870 | inactive | inactive | inactive |  |  |  |  |  |  |  | 33 |
| Cc1c(CF)nnc2sc(C(=O)NC3CN(c4ncc(C(F)(F)F)cn4)C3)c(N)c12 | 170 | 73 | > 30000 | inactive | inactive | inactive | 23.7 | 10.8 | 0.034 | 0.042 | 0.085 | 0.06 | 0.15 |  |
| Cc1c(Cl)nnc2sc(C(=O)NC3CN(c4cc(C(F)(F)F)ncc4Cl)C3)c(N)c12 | 20 | 90 | > 10000 | inactive | inactive | inactive | 31.7 | 14.7 | 0.019 | 0.019 | 0.01 | 0.31 | 0.16 | 51 |
| Cc1nnc2sc(C(=O)NC3Cc4ccccc4C3)c(N)c2c1C | 20 | 79 |  |  |  |  |  |  |  |  |  |  |  |  |
| Cc1c(Cl)nnc2sc(C(=O)NC3CN(c4ncncc4C#N)C3)c(N)c12 | 220 | 65 | > 30000 | inactive | inactive | inactive |  |  |  |  |  |  |  |  |
| Cc1c(Cl)nnc2sc(C(=O)NC3CN(c4nnc(CC(C)C)o4)C3)c(N)c12 | 230 | 47 | > 10000 | inactive | inactive | inactive |  |  |  |  |  |  |  | 62 |
| Cc1c(C(C)C)nnc2sc(C(=O)NC3CN(c4ncc(C(F)(F)F)cn4)C3)c(N)c12 | 540 | 56 | > 30000 | inactive | inactive | inactive |  |  |  |  |  |  |  |  |
| Cc1c(O)nnc2sc(C(=O)NC3Cc4ccccc4C3)c(N)c12 | 290 | 71 |  |  |  |  |  |  |  |  |  |  |  |  |
| Cc1c(Cl)nnc2sc(C(=O)NC3CN(c4cnc(Cl)cn4)C3)c(N)c12 | 140 | 99 | 400 | inactive | inactive | inactive |  |  |  |  |  |  |  | 40 |
| Cc1c(Cl)nnc2sc(C(=O)NC3CN(c4cccnc4)C3)c(N)c12 | 20 | 86 | 1100 | inactive | inactive | inactive |  |  |  |  |  |  |  | 64 |
| Cc1nc(Cl)c(C)c(N2CC(NC(=O)c3sc4nnc(Cl)c(C)c4c3N)C2)n1 | 100 | 84 | > 30000 | inactive | inactive | inactive |  |  |  |  |  |  |  |  |
| Cc1cnnc2sc(C(=O)NC3Cc4ccccc4C3)c(N)c12 | 60 | 81 |  |  |  |  |  |  |  |  |  |  |  |  |
| Cc1c(Cl)nnc2sc(C(=O)NC3Cc4ccccc4C3)c(N)c12 | 10 | 73 |  |  |  |  |  |  |  |  |  |  |  |  |
